Measured values: patent publication US11497788B2, “Supramolecular glycosaminoglycans” (Northwestern University, priority 2015, dated 2022)

Key:
[1] = tested on: BMP-2, BMP-4, noggin, Shh, VEGF, FGF-1, FGF-2; experiment: Surface plasmon resonance (SPR) binding to immobilized heparin binding GFs; design: species or system human (Noggin murine); settings: analytes 50-500 nM; GFs immobilized on alginate surface; 25° C.
Description: Surface Plasmon Resonance: The binding interactions between PAs (analytes) and growth factors (ligands) were analyzed via surface plasmon resonance (SPR) using a ProteON XPR36 system (Bio-Rad Laboratories). PA samples were thermally annealed as described for Cryo-TEM. PA solutions were spun down, pipetted for homogeneous mixing, and sequentially diluted to appropriate concentrations using Tween buffer (Milli-Q water, 0.05% Tween-20). Lyophilized powders of GFs were reconstituted to 5 μM without any carrier proteins according to the manufacturer's instructions. BMP-2, BMP-4, Shh, VEGF, and FGF-2 were further diluted to 200 nM in ProteOn Acetate Buffer pH 5.5, while FGF-1 was diluted to 200 nM in ProteOn Acetate Buffer pH 4.5. Noggin was diluted to 300 nM in ProteOn Acetate Buffer pH 5.5.
GFs were immobilized on a ProteOn GLC-Chip via amino coupling as described previously, with slight modifications (37). First, the alginate surface was activated with a freshly prepared mixture of 20 mM 1-Ethyl-3-[3-dimethylaminopropyl]carbodiimide hydrochloride (EDC) and 5 mM N-hydroxysulfosuccinimide (Sulfo-NHS) in Milli-Q water (vertical flow cells, 30 μL/min, 3 min). Following, GFs were immobilized on vertical flow cells 1 to 5 by perfusing a freshly prepared 200 nM (or 300 nM) solution over the activated alginate surface (30 μL/min, 5 min). Blank buffer was perfused on vertical cell 6 as a reference. The remaining esters were deactivated with 1 M ethanolamine (30 μL/min, 3 min). The association and dissociation phases were performed at 25° C. in Tween buffer. Prior to each analyte injection, the horizontal flow cells 1 to 6 were regenerated with 10 mM NaOH (100 μL/min, 30 sec) and washed once with Tween buffer (30 μL/min, 3 min). Varied analyte concentrations were injected to horizontal flow cells 1 to 5, with flow cell 6 as a reference (30 μL/min, 5 min), followed by dissociation with Tween buffer (30 μL/min, 10 min). For analysis, SPR sensorgram from the reference flow cell was subtracted from all measurement flow cells. Interaction data were evaluated using the BIAEvaluation 4.1 software. […]

[2] = tested on: BMP-2 signaling in C2C12 cells; experiment: C2C12 osteoblast differentiation with BMP-2, alkaline phosphatase (ALP) activity; format: cell-based, mouse; settings: C2C12, BMP-2 75 ng/mL, 3 days
Description: (§1) C2C12 Cell Culture: C2C12 mouse myoblasts (ATCC) were maintained in Dulbecco's Modified Eagle's Medium with high glucose and L-glutamine (DMEM, ATCC), supplemented with 100 U/mL of penicillin and 100 μg/mL streptomycin (P/S, Life Technologies) and 10% heat inactivated FBS (Life Technologies), and passaged at 80-90% confluence. Media was changed every 2 days. Passages 3 to 8 were used for experiments. Cells were grown at 37° C., 5% CO2 in a humidified atmosphere. Cells were detached following a 3 minute incubation at 37° C. with 0.05% Trypsin-EDTA (Life Technologies), then resuspended in DMEM (10% FBS). Unless stated otherwise, cells were seeded at 75,000 cells/mL (400 μL/well in a 48-well plate), and allowed to attach for a minimum of 3 hours prior to experiments.
C2C12 Osteoblast Differentiation: PA samples were thermally annealed as described for Cryo-TEM. PA solutions were spun down, pipetted for homogeneous mixing, then diluted to 1 mM with DMEM (no FBS). In a 1.5 mL microcentrifuge tube, PA solutions were further diluted with DMEM (5% FBS), gently vortexed, and appropriate amounts of GFs (20 μg/mL) were added to yield [PA]=125 μM and [GF]=375 ng/mL. For mixing, the microcentrifuge tube was gently inverted several times by hand. Following, cells were treated by adding a 100 μl, of the PA/GF mixture per well (48-well plate), yielding a final 500 μl, differentiation medium with [PA]=25 μM and [GF]=75 ng/mL. For controls, the initial 5 mM PA solution was substituted with either PBS alone (saline) or heparin in PBS at appropriate concentrations. Cells were cultured for 3 days without changing the media, and osteoblast differentiation was assessed.
Alkaline Phosphatase Activity: Alkaline phosphatase (ALP) activity was measured as a marker of osteoblast differentiation (ref. 38; incorporated by reference in its entirety). On day 3, media was removed, and cells were lysed with a 100 μL, of M-PER Mammalian Protein Extraction Reagent (Life Technologies), supplemented with 1×Halt Protease Inhibitor Cocktail (Thermo Fisher Scientific), for 30 minutes on an orbital shaker. A 20 μL, volume of the cell lysate was incubated with 200 μL, of the QUANTI-Blue colorimetric ALP assay (InvivoGen) for 30 minutes to 2 hours at 37° C., in duplicates. The ALP activity was assessed by reading the OD at 630 nm with Cytation3 microplate reader (BioTek). Data were normalized to the respective endogenous DNA levels using Quant-iT PicoGreen dsDNA Assay Kit (Life Technologies). Two separate experiments with 4 replicates each were averaged for statistical analysis. […]

noggin = biological target: T1, noggin (Mus musculus, UniProt P97466); experiment: Noggin inhibition of BMP-2 activity in C2C12 cells; format: cell-based, murine; settings: during osteoblast differentiation of C2C12
T1 construct: purchased PeproTech; host or cells: E. coli
T1 sequence (P97466 with tags, fused parts or gaps): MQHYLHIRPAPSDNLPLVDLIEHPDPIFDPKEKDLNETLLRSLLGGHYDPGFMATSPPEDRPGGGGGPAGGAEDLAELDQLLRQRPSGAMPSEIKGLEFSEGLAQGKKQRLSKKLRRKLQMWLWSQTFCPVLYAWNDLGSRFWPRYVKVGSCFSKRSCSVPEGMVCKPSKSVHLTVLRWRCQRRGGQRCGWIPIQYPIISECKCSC
Description: as §1
C2C12 Osteoblast Differentiation: PA samples were thermally annealed as described for Cryo-TEM. PA solutions were spun down, pipetted for homogeneous mixing, then diluted to 1 mM with DMEM (no FBS). […] Cells were cultured for 3 days without changing the media, and osteoblast differentiation was assessed.
Alkaline Phosphatase Activity: Alkaline phosphatase (ALP) activity was measured as a marker of osteoblast differentiation (ref. 38; incorporated by reference in its entirety). […] The ALP activity was assessed by reading the OD at 630 nm with Cytation3 microplate reader (BioTek). […]

Factor Xa = settings: compared to heparin
Description: Anticoagulation Assay: PA 1 was dissolved to 5 mM in saline with 5 mM CaCl2), pH 7.2, thermally annealed at 80° C. for 30 min and slowly cooled to room temperature. The PA solution was spun down, pipetted for homogeneous mixing, and diluted to 0.25, 2.5, 25, and 100 μM in saline with 2 mM CaCl2). The anticoagulant activities of PA 1 and heparin were assessed by monitoring the activity of Factor Xa, a coagulation cascade enzyme inhibited by heparin-activated antithrombin. The assay was performed using the COATEST Heparin Kit (Chromogenix) according to the manufacturer's instructions. Values were represented as the relative bioactivity of Factor Xa when compared to treatment group treated with saline only.

3,4,6S-GlcNAc PA (VVAAEEK) [PA 1] was tested, and the “binding to heparin binding GFs (SPR)” value [1] was “strong concentration-dependent binding”, the “effect on BMP-2 activity / osteoblast differentiation (in words)” value [2] was “dramatically amplified” and the “protection of BMP-2 from noggin antagonist” value (noggin) was “successfully protected”. The “anticoagulation activity (Factor Xa activity)” value (Factor Xa) was “minimal anticoagulation activity”.
